# Test results published in US10774132B2, “Ultralong complementarity determining regions and uses thereof” (THE SCRIPPS RESEARCH INSTITUTE, priority 2012, dated 2020).
# Assays:
# mice neutrophils = test: Neutrophil counts in mice, 10th day after injection; type: in vivo; details: blood stained and counted at the 10th day post-injection
# Description: On the 10th day after injection of BLV1H12-bGCSF fusion antibodies into mice for PK study, blood samples were drawn from the mice and stained using the Diff Quick Staining Kit (Thermo Fisher Scientific, IL). Neutrophils and white blood cells were counted under microscope and the percentages of neutrophils were analyzed. FIGS. 12A-12B and Table 12 show proliferative activities of BLV1H12-bGCSF fusion antibodies on mice neutrophils that are blood stained and counted at the 10th day post-injection.
# Mouse NFS-60 cells = test: Proliferation assay on mouse NFS-60 cells (AlamarBlue); type: cell-based; details: 72 hours
# Description: Mouse NFS-60 cells were obtained from American Type Culture Collection (ATCC), VA, and cultured in RPMI-1640 medium supplemented with 10% fetal bovine serum (FBS), 0.05 mM 2-mercapoethanol and 62 ng/ml human macrophage colony stimulating factor (M-CSF). For proliferation assay, mouse NFS-60 cells were washed three times with RPMI-1640 medium and resuspended in RPMI-1640 medium with 10% FBS and 0.05 mM 2-mercapoethanol at a density of 1.5×10^5 cells/ml. In 96-well plates, 100 μl of cell suspension was added into each well, followed by the addition of varied concentrations of bGCSF, BLV1H12 antibody, and the immunoglobulin constructs described herein, Equal volume of PBS buffer was added into the control wells. The plates were incubated at 37° C. in a 5% CO2 incubator for 72 hours. Cells were then treated with AlamarBlue (Invitrogen) ( 1/10 volume of cell suspension) for 4 hours at 37° C. Fluorescence at 595 nm for each well was read to indicate the cell viability.
# Human mPB CD34+ cells = test: Proliferative activity on human granulocyte progenitors (flow cytometry); type: cell-based; details: 7 days, flow cytometry
# Description: Human mPB CD34^+ cells were purchased from AllCells. Cells were resuspended in HSC expansion medium (StemSpan SFEM, StemCell Technologies) supplemented with 1× antibiotics and the following recombinant human cytokines: thrombopoietin, IL6, Flt3 ligand, and stem cell factor (100 ng/mL, R & D Systems), then plated in 96-well plates (1000 cells per well), with varied concentrations of BLV1H12-bGCSF fusion antibodies. Cells were cultured for 7 days at 37° C. in a 5% CO2 incubator, then analyzed by flow cytometry to measure cell number and expression of CD45ra and CD41. Cells were stained in staining medium (HBSS supplemented with 2% FBS and 2 mM EDTA) at 4° C. for 1 h with PECy7 anti-CD45ra and eFluor 450 anti-CD41 (eBiosciences), then washed with staining medium and analyzed. Multicolor analysis for cell phenotyping was performed on a LSR II flow cytometer (Becton Dickinson). FIGS. 10A-10E and Tables 9-10 show the human granulocyte progenitor cell proliferative activities of the Ab-GCSF fusion antibodies.
# [1] = Pharmacokinetics in mice (ELISA of blood samples); type: in vivo; details: 70 μg injected, BALB/c mice
# Description: For PK study in mice, 70 μg of the immunoglobulin constructs described herein were injected into 3 BALB/c mice per group. Blood samples were drawn from time 0 to 14 days with extended intervals and analyzed by ELISA using anti-human IgG Fc antibody with horseradish peroxidase (HRP) labeled (KPL) and anti-6×His antibody (“6×His” disclosed as SEQ ID NO: 511) with HRP labeled (Clontech). Data were normalized by taking maximal concentration at the first time point (30 min).
# GLP-1 receptor (GLP-1R) = molecular target: T1, GLP-1 receptor (GLP-1R) (Homo sapiens, UniProt P43220); test: GLP-1R activation, cAMP responsive luciferase reporter in HEK293 cells; type: cell-based; details: HEK293 cells expressing GLP-1R, 24 h
# T1 construct: expressed in transfected cells; host or cells: HEK293 (with cAMP responsive luciferase reporter gene)
# Description: HEK293 cells expressing surface GLP-1R and cAMP responsive luciferase reporter gene were seeded in 384 well plates at a density of 5000 cells per well. […] Subsequently, luciferase assay was performed using One-Glo luciferase reagent according manufacture's instruction (Promega).
# HEK293 cells expressing surface GLP-1R and cAMP responsive luciferase reporter gene were seeded in 384 well plates at a density of 5000 cells per well. After 24 h incubation at 37° C. with 5% CO2, cells were treated with various concentrations of peptides and BLV1H12-GLP-1 clip fusion proteins and incubated for another 24 h. Subsequently, luciferase assay was performed using One-Glo luciferase reagent according manufacture's instruction (Promega).
# T1 sequence (P43220 24-463, species assumed): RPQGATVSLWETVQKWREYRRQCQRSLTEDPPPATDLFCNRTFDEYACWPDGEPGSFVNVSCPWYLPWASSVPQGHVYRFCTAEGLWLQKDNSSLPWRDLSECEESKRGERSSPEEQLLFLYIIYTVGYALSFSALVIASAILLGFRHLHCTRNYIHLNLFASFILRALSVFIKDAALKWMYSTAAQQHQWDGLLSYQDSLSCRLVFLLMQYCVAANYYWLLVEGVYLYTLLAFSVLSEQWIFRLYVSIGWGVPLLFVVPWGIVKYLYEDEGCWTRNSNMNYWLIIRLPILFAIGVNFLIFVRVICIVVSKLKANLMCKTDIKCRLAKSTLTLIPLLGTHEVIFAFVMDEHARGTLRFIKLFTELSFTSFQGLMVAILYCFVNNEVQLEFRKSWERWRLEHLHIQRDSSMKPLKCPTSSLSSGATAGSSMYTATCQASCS
substance,measurement,setting,value
"Ab-bGCSF L0: bovine G-CSF replacing the knob domain of BLV1H12 CDR3H, no linker (n=0), SEQ ID NO: 4",Percentage of Neutrophil,mice neutrophils,25.05
same,"F.I. (fluorescence at 595 nm, AlamarBlue, cell viability)",Mouse NFS-60 cells; 0.09876 ng/mL,1328
same,"F.I. (fluorescence at 595 nm, AlamarBlue, cell viability)",Mouse NFS-60 cells; 0.29627 ng/mL,1436
same,"F.I. (fluorescence at 595 nm, AlamarBlue, cell viability)",Mouse NFS-60 cells; 0.88881 ng/mL,1734.765
same,"F.I. (fluorescence at 595 nm, AlamarBlue, cell viability)",Mouse NFS-60 cells; 2.66642 ng/mL,2189
same,"F.I. (fluorescence at 595 nm, AlamarBlue, cell viability)",Mouse NFS-60 cells; 7.99927 ng/mL,2680
same,"F.I. (fluorescence at 595 nm, AlamarBlue, cell viability)",Mouse NFS-60 cells; 23.9978 ng/mL,2899
same,"F.I. (fluorescence at 595 nm, AlamarBlue, cell viability)",Mouse NFS-60 cells; 71.9934 ng/mL,2921
same,"F.I. (fluorescence at 595 nm, AlamarBlue, cell viability)",Mouse NFS-60 cells; 215.9802 ng/mL,3416
same,Number of CD45RA-CD41-,Human mPB CD34+ cells; 0.14225 ng/mL,2601
same,Number of CD45RA-CD41-,Human mPB CD34+ cells; 0.42676 ng/mL,2253
same,Number of CD45RA-CD41-,Human mPB CD34+ cells; 3.84088 ng/mL,4399
same,Number of CD45RA-CD41-,Human mPB CD34+ cells; 11.52263 ng/mL,7262
same,Number of CD45RA-CD41-,Human mPB CD34+ cells; 34.5679 ng/mL,9902
same,Number of CD45RA-CD41-,Human mPB CD34+ cells; 103.7037 ng/mL,11500
same,Number of CD45RA-CD41-,Human mPB CD34+ cells; 311.11111 ng/mL,11500
same,Number of CD45RA-CD41-,Human mPB CD34+ cells; 933.33333 ng/mL,11900
same,Number of CD45RA-CD41-,Human mPB CD34+ cells; 2800 ng/mL,12100
same,"Percentage (blood level normalized to first time point, 30 min)",[1]; day 0.021,100.00%
same,"Percentage (blood level normalized to first time point, 30 min)",[1]; day 0.042,91.12%
same,"Percentage (blood level normalized to first time point, 30 min)",[1]; day 0.083,91.24%
same,"Percentage (blood level normalized to first time point, 30 min)",[1]; day 0.125,91.56%
same,"Percentage (blood level normalized to first time point, 30 min)",[1]; day 0.250,61.22%
same,"Percentage (blood level normalized to first time point, 30 min)",[1]; day 1.000,44.22%
same,"Percentage (blood level normalized to first time point, 30 min)",[1]; day 2.000,36.36%
same,"Percentage (blood level normalized to first time point, 30 min)",[1]; day 3.000,27.38%
same,"Percentage (blood level normalized to first time point, 30 min)",[1]; day 8.000,11.53%
same,"Percentage (blood level normalized to first time point, 30 min)",[1]; day 10.000,12.44%
same,"Percentage (blood level normalized to first time point, 30 min)",[1]; day 14.000,14.35%
Ab-Ex4: Exendin-4 with Factor Xa site and GGGGS linkers grafted into CDR3H of BLV1H12,RLU (cAMP responsive luciferase reporter),GLP-1 receptor (GLP-1R); 1.26953 nM,6120 RLU
same,RLU (cAMP responsive luciferase reporter),GLP-1 receptor (GLP-1R); 2.53906 nM,6360 RLU
same,RLU (cAMP responsive luciferase reporter),GLP-1 receptor (GLP-1R); 5.07813 nM,8500 RLU
same,RLU (cAMP responsive luciferase reporter),GLP-1 receptor (GLP-1R); 10.15625 nM,10420 RLU
same,RLU (cAMP responsive luciferase reporter),GLP-1 receptor (GLP-1R); 20.3125 nM,19340 RLU
same,RLU (cAMP responsive luciferase reporter),GLP-1 receptor (GLP-1R); 40.625 nM,27960 RLU
same,RLU (cAMP responsive luciferase reporter),GLP-1 receptor (GLP-1R); 81.25 nM,54800 RLU
same,RLU (cAMP responsive luciferase reporter),GLP-1 receptor (GLP-1R); 162.5 nM,90660 RLU
same,RLU (cAMP responsive luciferase reporter),GLP-1 receptor (GLP-1R); 325 nM,117900 RLU
same,RLU (cAMP responsive luciferase reporter),GLP-1 receptor (GLP-1R); 650 nM,134760 RLU
same,RLU (cAMP responsive luciferase reporter),GLP-1 receptor (GLP-1R); 1300 nM,159660 RLU
"Ab-bGCSF L1: bovine G-CSF replacing the knob domain of BLV1H12 CDR3H with GGGGS linkers on both ends (n=1), SEQ ID NO: 5",Percentage of Neutrophil,mice neutrophils,25.32
same,"F.I. (fluorescence at 595 nm, AlamarBlue, cell viability)",Mouse NFS-60 cells; 0.09808 ng/mL,1412.387
same,"F.I. (fluorescence at 595 nm, AlamarBlue, cell viability)",Mouse NFS-60 cells; 0.29424 ng/mL,1654.776
same,"F.I. (fluorescence at 595 nm, AlamarBlue, cell viability)",Mouse NFS-60 cells; 0.88272 ng/mL,2082.718
same,"F.I. (fluorescence at 595 nm, AlamarBlue, cell viability)",Mouse NFS-60 cells; 2.64816 ng/mL,2550.674
same,"F.I. (fluorescence at 595 nm, AlamarBlue, cell viability)",Mouse NFS-60 cells; 7.94449 ng/mL,2997.807
same,"F.I. (fluorescence at 595 nm, AlamarBlue, cell viability)",Mouse NFS-60 cells; 23.83346 ng/mL,3277.812
same,"F.I. (fluorescence at 595 nm, AlamarBlue, cell viability)",Mouse NFS-60 cells; 71.50039 ng/mL,3308.383
same,"F.I. (fluorescence at 595 nm, AlamarBlue, cell viability)",Mouse NFS-60 cells; 214.50117 ng/mL,3868.075
same,Number of CD45RA-CD41-,Human mPB CD34+ cells; 0.30483 ng/mL,4070
same,Number of CD45RA-CD41-,Human mPB CD34+ cells; 0.91449 ng/mL,3601
same,Number of CD45RA-CD41-,Human mPB CD34+ cells; 2.74348 ng/mL,4303
same,Number of CD45RA-CD41-,Human mPB CD34+ cells; 8.23045 ng/mL,6404
same,Number of CD45RA-CD41-,Human mPB CD34+ cells; 24.69136 ng/mL,9122
same,Number of CD45RA-CD41-,Human mPB CD34+ cells; 74.07407 ng/mL,11200
same,Number of CD45RA-CD41-,Human mPB CD34+ cells; 222.22222 ng/mL,11000
same,Number of CD45RA-CD41-,Human mPB CD34+ cells; 666.66667 ng/mL,11400
same,Number of CD45RA-CD41-,Human mPB CD34+ cells; 2000 ng/mL,11400
same,Number of CD45RA-CD41-,Human mPB CD34+ cells; 6000 ng/mL,13200
same,"Percentage (blood level normalized to first time point, 30 min)",[1]; day 0.021,100.00%
same,"Percentage (blood level normalized to first time point, 30 min)",[1]; day 0.042,102.12%
same,"Percentage (blood level normalized to first time point, 30 min)",[1]; day 0.083,104.03%
same,"Percentage (blood level normalized to first time point, 30 min)",[1]; day 0.125,101.71%
same,"Percentage (blood level normalized to first time point, 30 min)",[1]; day 0.250,93.90%
same,"Percentage (blood level normalized to first time point, 30 min)",[1]; day 1.000,59.26%
same,"Percentage (blood level normalized to first time point, 30 min)",[1]; day 2.000,56.66%
same,"Percentage (blood level normalized to first time point, 30 min)",[1]; day 3.000,39.09%
same,"Percentage (blood level normalized to first time point, 30 min)",[1]; day 8.000,22.21%
same,"Percentage (blood level normalized to first time point, 30 min)",[1]; day 10.000,21.15%
same,"Percentage (blood level normalized to first time point, 30 min)",[1]; day 14.000,21.41%
